Measured values: patent US20110311601A1, “ANTIMICROBIAL MEDICAL DEVICES” (priority 2010, published 2011)
Where no end group is shown, it is not given here.

Columns and labels:
Assay in all cases: micro-dilution assay (MBC, LD90)
[1] = system: Acinetobacter baumannii ATCC 19606; type: cell-based
Summary of the method: (§1)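 MBC (99.9% killing) and LD90 (90% killing) come from CFU counts normalised to an untreated growth control. Organisms grown in BHI, washed into 10 mM sodium phosphate buffer pH 7.2 at 10^4 cells/ml, then incubated 2 h with hβD2 (final 0.0125–100 mg/l) before plating.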

[2] = system: Fusobacterium nucleatum ATCC 10953; type: cell-based
Summary of the method: as §1

[3] = system: Candida glabrata Va 27966/02 (wild-type); type: cell-based
Summary of the method: as §1

[4] = system: Candida albicans ATCC 10231; type: cell-based
Summary of the method: as §1

[5] = system: Actinobacillus actinommycetemcomitans NCTC 10979; type: cell-based
Summary of the method: as §1

[6] = system: Klebsiella pneumoniae (ESBL) CF 31 (wild-type); type: cell-based
Summary of the method: as §1

[7] = system: Acinetobacter haemolyticus ATCC 17906; type: cell-based
Summary of the method: as §1

[8] = system: Providencia rettgeri NCTC 7475; type: cell-based
Summary of the method: as §1

[9] = system: Streptococcus mutans ATCC 35668; type: cell-based
Summary of the method: as §1

[10] = system: Candida tropicalis ATCC 750; type: cell-based
Summary of the method: as §1

E. coli ATCC 25922 = type: cell-based
Summary of the method: as §1

[11] = system: Streptococcus pneumoniae DSM 11865 (Penr); type: cell-based
Summary of the method: as §1

[12] = system: Stenotrophomonas maltophilia ATCC 10257; type: cell-based
Summary of the method: as §1

[13] = system: Candida albicans C.a 46 (wild-type); type: cell-based
Summary of the method: as §1

[14] = system: Stahylococcus aureus ATCC 12600; type: cell-based, Staphylococcus aureus
Method: The anti-bacterial activity of hβD2 was tested by a micro-dilution assay. Bacteria and fungi were streaked from a glycerol stock onto a Brain Heart Infusion (BHI) agar plate (3.7% w/v BHI Bouillon, 1.5% w/v Agar), grown overnight at 37° C. and 30° C., respectively and subsequently used to inoculate 40 ml of 3.7% w/v BHI Bouillon without any antibiotics in 100 ml flasks. Fresh cells were harvested by centrifugation at 16000 rpm for 10 min and washed twice with 10 mM sodium phosphate buffer, pH 7.2. The optical density was adjusted to 10^4 cells/ml. For anti-bacterial testing hβD2 was incubated in one well of a microtiter plate containing 100 μl of the bacterial suspension. Therefore, ten microlitres of hβD2 solution with a range of final concentrations tested from 0.0125 up to and including 100 mg/l was added to the bacterial suspension and incubated at 37° C. and 30° C., respectively for 2 h before colony forming units were determined. Colony forming units (CFU) were determined after plating 100 μl of a 1:100 dilution of the bacterial suspension on petri dishes with BHI medium and incubating them overnight at 37° C. For every group of the hβD2 added samples and the controls, 5 independent anti-bacterial assays were performed. A control (NC) of bacterial growth was examined for every independent assay. […]

human β-defensin-2 (GIGDPVTCLKSGAICHPVFCPRRYKQIGTCGLPGTKCCKKP; ends and bridges not checked; cysteine pairing not given here) [hβD2, recombinant hβD2]
LD 90 = μg/ml 90% killing [1]: 12.5 µg/mL | MBC = μg/ml 99.9% killing [1]: 25 µg/mL | LD 90 = μg/ml 90% killing [2]: 3.125 µg/mL | MBC = μg/ml 99.9% killing [2]: 3.125 µg/mL | LD 90 = μg/ml 90% killing [3]: 12.5 µg/mL | MBC = μg/ml 99.9% killing [3]: >100 µg/mL | LD 90 = μg/ml 90% killing [4]: 12.5 µg/mL | MBC = μg/ml 99.9% killing [4]: 25 µg/mL | LD 90 = μg/ml 90% killing [5]: 100 µg/mL | MBC = μg/ml 99.9% killing [5]: >100 µg/mL | LD 90 = μg/ml 90% killing [6]: 6.25 µg/mL | MBC = μg/ml 99.9% killing [6]: 25 µg/mL | LD 90 = μg/ml 90% killing [7]: 0.39 µg/mL | MBC = μg/ml 99.9% killing [7]: 1.56 µg/mL | LD 90 = μg/ml 90% killing [8]: 100 µg/mL | MBC = μg/ml 99.9% killing [8]: >100 µg/mL | LD 90 = μg/ml 90% killing [9]: 100 µg/mL | MBC = μg/ml 99.9% killing [9]: >100 µg/mL | LD 90 = μg/ml 90% killing [10]: 1.56 µg/mL | MBC = μg/ml 99.9% killing [10]: 25 µg/mL | LD 90 = μg/ml 90% killing (E. coli ATCC 25922): 6.25 µg/mL | MBC = μg/ml 99.9% killing (E. coli ATCC 25922): 12.5 µg/mL | LD 90 = μg/ml 90% killing [11]: 50 µg/mL | MBC = μg/ml 99.9% killing [11]: 100 µg/mL | LD 90 = μg/ml 90% killing [12]: 6.25 µg/mL | MBC = μg/ml 99.9% killing [12]: 25 µg/mL | LD 90 = μg/ml 90% killing [13]: 6.25 µg/mL | MBC = μg/ml 99.9% killing [13]: 25 µg/mL | LD 90 = μg/ml 90% killing [14]: 25 µg/mL | MBC = μg/ml 99.9% killing [14]: 100 µg/mL
